Measured values published in ChEMBL document CHEMBL3217627, “Designing glucokinase activators with reduced hypoglycemia risk: discovery of N,N-dimethyl-5-(2-methyl-6-((5-methylpyrazin-2-yl)-carbamoyl)benzofuran-4-yloxy)pyrimidine-2-carboxamide as a clinical candidate for the treatment of type 2 diabetes mellitus” (Medchemcomm, 2011).
Converted amounts (≈) assume the structure as drawn. The source made the active and inactive calls. The rule behind the calls is not given here.

Columns and labels:
[1] = biological target: T1, Hexokinase-4 (Rattus norvegicus, UniProt P17712); assay: Activation of rat glucokinase
T1 sequence (P17712 whole entry): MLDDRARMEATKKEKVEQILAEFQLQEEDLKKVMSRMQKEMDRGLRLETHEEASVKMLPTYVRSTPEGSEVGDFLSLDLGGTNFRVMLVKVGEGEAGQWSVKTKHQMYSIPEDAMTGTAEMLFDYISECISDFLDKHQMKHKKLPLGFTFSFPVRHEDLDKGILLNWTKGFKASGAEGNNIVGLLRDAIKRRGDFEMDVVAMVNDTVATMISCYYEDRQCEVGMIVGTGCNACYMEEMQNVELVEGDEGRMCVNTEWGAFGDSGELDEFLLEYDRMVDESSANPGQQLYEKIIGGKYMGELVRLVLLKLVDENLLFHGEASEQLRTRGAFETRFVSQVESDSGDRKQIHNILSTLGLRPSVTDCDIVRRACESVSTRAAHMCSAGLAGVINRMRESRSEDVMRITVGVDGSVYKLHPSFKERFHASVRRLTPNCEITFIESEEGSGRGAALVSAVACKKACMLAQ

[2] = test system: Rattus norvegicus; assay: Antidiabetic activity in Sprague-Dawley rat assessed as reduction of post-prandial glucose excursion at 3 to 100 mg/kg, po administered for 60 mins followed by glucose challenge measured up to 120 mins by OGTT; format: functional, organism-based
[3] = Kinetic solubility of the compound; format: physicochemical; conditions: read-out: Kinetic_solubility
[4] = Intrinsic clearance in human liver microsomes; format: ADME; conditions: read-out: CLH
[5] = Passive permeability across RRCK cells; format: ADME, cell-based, Canis lupus familiaris, MDCKII-LE; conditions: dog, MDCK; read-out: permeability
[6] = biological target: hERG (KCNH2) (Homo sapiens, UniProt Q12809); assay: Inhibition of dofetilide binding to human ERG at 10 uM relative to control; conditions: probe dofetilide
hERG (KCNH2), sequence (Q12809 whole entry): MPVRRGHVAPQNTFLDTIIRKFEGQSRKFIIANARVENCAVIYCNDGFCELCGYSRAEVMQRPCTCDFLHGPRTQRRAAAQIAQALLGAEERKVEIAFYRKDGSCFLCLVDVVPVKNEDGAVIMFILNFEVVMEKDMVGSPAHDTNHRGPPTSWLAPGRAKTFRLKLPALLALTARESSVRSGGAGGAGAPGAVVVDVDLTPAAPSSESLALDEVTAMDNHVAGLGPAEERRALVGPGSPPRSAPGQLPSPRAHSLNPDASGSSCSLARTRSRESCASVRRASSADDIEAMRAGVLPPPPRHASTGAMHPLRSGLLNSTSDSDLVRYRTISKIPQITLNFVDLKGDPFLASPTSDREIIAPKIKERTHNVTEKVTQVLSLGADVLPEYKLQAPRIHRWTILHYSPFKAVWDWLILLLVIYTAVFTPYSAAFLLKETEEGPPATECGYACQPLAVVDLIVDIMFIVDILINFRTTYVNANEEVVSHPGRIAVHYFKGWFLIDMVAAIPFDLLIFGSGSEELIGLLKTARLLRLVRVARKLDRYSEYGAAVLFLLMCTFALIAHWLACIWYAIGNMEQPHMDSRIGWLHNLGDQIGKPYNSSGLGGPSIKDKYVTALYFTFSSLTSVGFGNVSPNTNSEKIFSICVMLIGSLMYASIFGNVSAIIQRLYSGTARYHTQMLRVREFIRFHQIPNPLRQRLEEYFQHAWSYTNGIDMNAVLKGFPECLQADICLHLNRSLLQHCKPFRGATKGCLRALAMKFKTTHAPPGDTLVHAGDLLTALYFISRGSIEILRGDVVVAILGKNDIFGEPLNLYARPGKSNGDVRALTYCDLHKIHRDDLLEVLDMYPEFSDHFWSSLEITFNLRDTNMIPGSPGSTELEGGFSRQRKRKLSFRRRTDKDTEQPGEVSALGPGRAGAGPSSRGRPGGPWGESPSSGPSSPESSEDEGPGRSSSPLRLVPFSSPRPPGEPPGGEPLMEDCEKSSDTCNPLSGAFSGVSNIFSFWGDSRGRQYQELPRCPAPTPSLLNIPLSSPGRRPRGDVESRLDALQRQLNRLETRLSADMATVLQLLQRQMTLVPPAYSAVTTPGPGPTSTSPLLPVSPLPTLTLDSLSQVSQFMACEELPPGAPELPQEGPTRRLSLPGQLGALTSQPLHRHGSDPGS

[7] = biological target: T2, Hexokinase-4 (Homo sapiens, UniProt P35557)
T2 sequence (P35557 whole entry): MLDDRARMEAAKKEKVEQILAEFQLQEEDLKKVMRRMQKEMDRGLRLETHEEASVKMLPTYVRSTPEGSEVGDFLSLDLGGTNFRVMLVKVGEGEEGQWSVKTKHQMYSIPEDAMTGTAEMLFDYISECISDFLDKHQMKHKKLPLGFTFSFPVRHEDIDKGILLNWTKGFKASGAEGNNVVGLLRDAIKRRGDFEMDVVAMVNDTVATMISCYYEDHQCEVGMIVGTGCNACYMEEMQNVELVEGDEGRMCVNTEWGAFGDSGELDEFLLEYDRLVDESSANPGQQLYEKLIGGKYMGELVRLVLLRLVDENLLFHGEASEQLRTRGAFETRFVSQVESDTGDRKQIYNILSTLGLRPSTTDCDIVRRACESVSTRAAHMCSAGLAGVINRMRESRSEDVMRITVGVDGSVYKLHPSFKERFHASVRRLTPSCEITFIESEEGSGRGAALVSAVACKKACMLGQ
Description: Activation of recombinant human glucokinase assessed as formation of glucose-6-phosphate by G6PDH/NADP coupled assay

[8] = test system: Rattus norvegicus; assay: Toxicity in Sprague-Dawley rat assessed as hypoglycemic level at 30 to 100 mg/kg, po administered for 60 mins measured over first hour prior to OGTT; format: organism-based; set-up: dose 30-100 mg/kg, route oral; conditions: in vivo, 1 h
[9] = test system: Rattus norvegicus; assay: Antidiabetic activity in po dosed Sprague-Dawley rat assessed as reduction of post-prandial glucose excursion administered for 60 mins followed by glucose challenge measured up to 120 mins by OGTT; format: functional, organism-based
[10] = Selectivity ratio of EC50 for rat glucokinase to EC50 for human glucokinase
[11] = test system: Rattus norvegicus; assay: Toxicity in po dosed Sprague-Dawley rat assessed as reduction in fasting plasma glucose level administered for 60 mins measured over first hour prior to OGTT; format: organism-based; conditions: in vivo, 1 h
[12] = biological target: Voltage-gated inwardly rectifying potassium channel KCNH2 (Homo sapiens, UniProt Q12809); assay: Inhibition of dofetilide binding to human ERG
Voltage-gated inwardly rectifying potassium channel KCNH2, sequence (Q12809 whole entry): as the sequence (Q12809 whole entry) above

Row | Compound | solubility kinetic [3] | CLint scaled [4] | Papp [5] | inhibition at 10 µM [6] | EC50 [7] | other results
1 | CS(=O)(=O)c1ccc([C@@H](C[C@H]2CCC(=O)C2)C(=O)Nc2cnccn2)cc1Cl [PIRAGLIATIN] | – | – | – | – | – | EC50 [1]: 100 nM; Activity [2]: Active
2 | Cc1cnc(NC(=O)c2cc(Oc3cnc(C(=O)N4CCC4)cn3)c3cc(C)oc3c2)cn1 | 10 µM (≈ 4.44 µg/mL) | < 9.3 mL/min/kg | 17.4 ×10⁻⁶ cm/s | 4% | 85 nM | –
3 | Cc1csc(NC(=O)c2cc(Sc3nccn3C)c(F)cc2N)n1 | – | – | – | – | 66 nM | –
4 | Cn1ccc(NC(=O)c2cc(Oc3ccc(C(=O)N4CCC4)c(F)c3)c3c(c2)OC(C)(C)C3)n1 | – | – | – | – | 27 nM | EC50 [1]: 50 nM; Activity [8]: < 60 mg/dL; Activity [9]: Dose-dependent effect; Ratio EC50 [10]: < 4; Activity [11]: Dose-dependent effect
5 | COc1cnc(NC(=O)c2cc(Oc3cnc(C(=O)N(C)C)cn3)c3cc(C)oc3c2)cn1 | 25 µM (≈ 11.2 µg/mL) | < 8 mL/min/kg | 15.8 ×10⁻⁶ cm/s | 6% | 127 nM | –
6 | Cc1cc2c(Oc3cnc(C(=O)N(C)C)cn3)cc(C(=O)Nc3cnccn3)cc2o1 | 30 µM (≈ 12.6 µg/mL) | 15 mL/min/kg | 30 ×10⁻⁶ cm/s | 60% | 391 nM | –
7 | Cc1cc2c(Oc3cnc(C(=O)N(C)C)cn3)cc(C(=O)Nc3ncccn3)cc2o1 | – | – | – | 4% | > 100000 nM | –
8 | COc1ccc2nc(NC(=O)[C@H](CC3CCCC3)c3ccc(S(=O)(=O)N4CCN(C)CC4)cc3)sc2n1 | – | – | – | – | 122 nM | EC50 [1]: 390 nM; Ratio EC50 [10]: < 4
9 | COC1CN(C(=O)c2cnc(Oc3cc(C(=O)Nc4cnccn4)cc4oc(C)cc34)cn2)C1 | 158 µM (≈ 72.8 µg/mL) | < 9.2 mL/min/kg | 21.8 ×10⁻⁶ cm/s | 38% | > 5000 nM | –
10 | CCN(C)C(=O)c1cnc(Oc2cc(C(=O)Nc3cnc(C)cn3)cc3oc(C)cc23)cn1 | 344 µM (≈ 154 µg/mL) | < 8 mL/min/kg | 24.1 ×10⁻⁶ cm/s | 6% | 153 nM | –
11 | Cc1ccc(NC(=O)c2cc(Oc3cnc(C(=O)N(C)C)cn3)c3cc(C)oc3c2)nc1 | 215 µM (≈ 92.8 µg/mL) | < 10.6 mL/min/kg | 21.5 ×10⁻⁶ cm/s | 2% | 477 nM | –
12 | CCc1cnc(NC(=O)c2cc(Oc3cnc(C(=O)N(C)C)cn3)c3cc(C)oc3c2)cn1 | 117 µM (≈ 52.2 µg/mL) | 12.2 mL/min/kg | 23.7 ×10⁻⁶ cm/s | – | 254 nM | –
13 | Cc1cnc(NC(=O)c2cc(Oc3cnc(C(=O)N4CCCC4)cn3)c3cc(C)oc3c2)cn1 | 4.5 µM (≈ 2.06 µg/mL) | < 8.1 mL/min/kg | 15.8 ×10⁻⁶ cm/s | 6% | 64 nM | –
14 | Cc1cc2c(Oc3cnc(C(=O)N4CC5(COC5)C4)cn3)cc(C(=O)Nc3cnccn3)cc2o1 | 43 µM (≈ 20.3 µg/mL) | 12.9 mL/min/kg | 19.9 ×10⁻⁶ cm/s | – | 2170 nM | –
15 | Cc1cnc(NC(=O)c2cc(Oc3ccc(S(C)(=O)=O)cc3)c3cc(C)oc3c2)cn1 | 3 µM (≈ 1.31 µg/mL) | 13 mL/min/kg | 7.6 ×10⁻⁶ cm/s | – | 870 nM | IC50 [12]: 22000 nM
16 | Cc1cc2c(Oc3cnc(C(=O)N(C)C)cn3)cc(C(=O)Nc3ccn(C)n3)cc2o1 | 540 µM (≈ 227 µg/mL) | < 8.2 mL/min/kg | 15.4 ×10⁻⁶ cm/s | 8% | 331 nM | –
